Measured values taken from publication PMC8509980 (Chinese Medical Journal, 2021).

Target: T1, sineoculis homeobox homolog 1 (SIX1) (Homo sapiens, UniProt Q15475)
T1 sequence (Q15475 1-284): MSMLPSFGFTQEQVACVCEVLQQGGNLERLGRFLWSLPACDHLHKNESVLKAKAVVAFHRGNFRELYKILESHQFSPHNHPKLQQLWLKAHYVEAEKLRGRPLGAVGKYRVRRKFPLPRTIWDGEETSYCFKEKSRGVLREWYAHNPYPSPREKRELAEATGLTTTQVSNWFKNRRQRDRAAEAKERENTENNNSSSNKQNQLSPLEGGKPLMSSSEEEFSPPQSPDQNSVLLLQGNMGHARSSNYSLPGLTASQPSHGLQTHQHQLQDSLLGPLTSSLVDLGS
T1 sequence (Q99502 1-592 partner): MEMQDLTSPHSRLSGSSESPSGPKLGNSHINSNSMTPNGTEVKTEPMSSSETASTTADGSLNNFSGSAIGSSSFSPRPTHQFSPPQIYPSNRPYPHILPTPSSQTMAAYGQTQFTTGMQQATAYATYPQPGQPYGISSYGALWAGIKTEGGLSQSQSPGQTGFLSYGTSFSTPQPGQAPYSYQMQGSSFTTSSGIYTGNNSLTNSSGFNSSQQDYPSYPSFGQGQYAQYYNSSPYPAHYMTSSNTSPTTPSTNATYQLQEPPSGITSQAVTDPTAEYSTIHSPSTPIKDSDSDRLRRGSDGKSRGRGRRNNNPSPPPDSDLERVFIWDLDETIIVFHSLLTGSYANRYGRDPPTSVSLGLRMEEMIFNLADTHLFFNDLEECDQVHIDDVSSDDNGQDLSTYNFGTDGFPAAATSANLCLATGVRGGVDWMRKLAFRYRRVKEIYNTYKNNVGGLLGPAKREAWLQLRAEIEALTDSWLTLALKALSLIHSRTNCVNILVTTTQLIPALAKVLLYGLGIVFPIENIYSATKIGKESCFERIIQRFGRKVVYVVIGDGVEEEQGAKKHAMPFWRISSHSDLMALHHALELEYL
Experiment: AlphaScreen disruption of purified GST-SIX1/His-EYA1 interaction
Format: binding

| IC50 | Substance |
| --- | --- |
| 12.6 ± 1.15 µM | NSC0191 |
| 83.4 ± 7.24 µM | NSC0933 |
